Assay results: patent publication US6479531B1, “Gastrin and cholecystokinin receptor ligands” (James Black Foundation Limited, priority 1998, dated 2002)

Biological target: T1, gastrin receptor (Rattus norvegicus, UniProt P30553)
T1 construct: The stomach was excised and flushed with ca. 1 ml of unbuffered physiological saline solution; from tissue; host or cells: isolated whole stomach of immature rats (ca. 21 days old)
T1 sequence (P30553 1-452): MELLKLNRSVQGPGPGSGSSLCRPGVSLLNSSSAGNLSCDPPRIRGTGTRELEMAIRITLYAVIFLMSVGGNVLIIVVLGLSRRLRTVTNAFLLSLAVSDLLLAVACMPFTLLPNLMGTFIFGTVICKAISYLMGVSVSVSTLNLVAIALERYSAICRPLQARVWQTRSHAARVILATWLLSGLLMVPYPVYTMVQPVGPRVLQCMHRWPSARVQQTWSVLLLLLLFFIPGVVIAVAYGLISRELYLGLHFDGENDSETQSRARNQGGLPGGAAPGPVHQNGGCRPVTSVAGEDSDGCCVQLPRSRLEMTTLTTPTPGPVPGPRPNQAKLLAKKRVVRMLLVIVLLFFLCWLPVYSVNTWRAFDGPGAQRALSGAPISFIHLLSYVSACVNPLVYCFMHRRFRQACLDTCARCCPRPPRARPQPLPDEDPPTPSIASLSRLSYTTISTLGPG
Assay: gastrin antagonist activity in immature rat stomach assay (pentagastrin dose-response, acid secretion)
Settings: isolated immature rat stomach, cumulative pentagastrin dose-response curves, read-out: Gastrin pKb (converted)
Protocol: The compounds of the examples were also tested for gastrin antagonist activity in an immature rat stomach assay. The procedure was as follows:
The oesophagus of immature rats (33-50 g, ca. 21 days old) was ligated at the level of the cardiac sphincter and the duodenal sphincter was cannulated. The stomach was excised and flushed with ca. 1 ml of unbuffered physiological saline solution. The fundus was punctured and cannulated. A further 4-5 ml of unbuffered solution was flushed through the stomach to ensure the preparation was not leaking. The stomach was lowered into a jacketed organ bath containing 40 ml of buffered solution containing 3×10^−8 M 5-methylfurmethide, maintained at 37° and gassed vigorously with 95% O2/5% CO2. The stomach was continuously perfused at a rate of 1 ml min^−1 with unbuffered solution gassed with 100% O2 with the perfusate passing over an internally referenced pH-electrode fixed 12 cm above the stomach.
After 120 min of stabilisation the drugs were added directly to the serosal solution in the organ bath and after a further 60 min cumulative pentagastrin dose-response curves were started. Changes in acid secretion were monitored and the curves analysed according to Black et al., Br. J. Pharmacol., 1985, 86, 581.

| Kb [nM] | Compound |
| --- | --- |
| 6.61 | Cc1ccc(NC(=O)c2nc(C3CCCCC3)[nH]c2CCC23CCC(CC2)CC3)cc1C(=O)O [Example 176, 5-{[5-(2-Bicyclo[2.2.2]oct-1-yl-ethyl)-2-cyclohexyl-1H-imidazole-4-carbonyl]-amino}-2-methyl-benzoic Acid] |
| 51.3 | Cc1cc(C)c(-c2nc(C(=O)Nc3cccc(C(=O)O)c3)c(CCC34CC5CC(CC(C5)C3)C4)[nH]2)c(C)n1 [Example 182, 3-{[5-(2-Adamantan-1-yl-ethyl)-2-(2,4,6-trimethyl-pyridine-3-yl)-1H-imidazole-4-carbonyl]-amino}-benzoic Acid] |
| 42.7 | Cc1cc(C)c(-c2nc(C(=O)Nc3ccc(C)c(C(=O)O)c3)c(CCC34CC5CC(CC(C5)C3)C4)[nH]2)c(C)n1 [Example 183, 5-{[5-(2-Adamantan-1-yl-ethyl)-2-(2,4,6-trimethyl-pyridine-3-yl)-1H-imidazole-4-carbonyl]-amino}-2-methyl-benzoic Acid] |
| 70.8 | Cc1cc(C)c(-c2nc(C(=O)Nc3ccc(F)c(C(=O)O)c3)c(CCC34CC5CC(CC(C5)C3)C4)[nH]2)c(C)n1 [Example 184, 5-{[5-(2-Adamantan-1-yl-ethyl)-2-(2,4,6-trimethyl-pyridine-3-yl)-1H-imidazole-4-carbonyl]-amino}-2-fluoro-benzoic Acid] |
| 61.7 | COCC(COC)c1nc(C(=O)Nc2cccc(C(=O)O)c2)c(CCC23CC4CC(CC(C4)C2)C3)[nH]1 [Example 189, 3-{[5-(2-Adamantan-1-yl-ethyl)-2-(2-methoxy-1-methoxymethyl-ethyl)-1H-imidazole-4-carbonyl]-amino}-benzoic Acid] |
| 11.7 | COCC1(c2nc(C(=O)Nc3cccc(C(=O)O)c3)c(CCC34CC5CC(CC(C5)C3)C4)[nH]2)CCCCC1 [Example 203, 3-{[5-(2-Adamantan-1-yl-ethyl)-2-(1-methoxymethyl-cyclohexyl)-1H-imidazole-4-carbonyl]-amino}-benzoic Acid] |
| 5.75 | O=C(O)c1cccc(NC(=O)c2nc(C3(CO)CCCCC3)[nH]c2CCC23CC4CC(CC(C4)C2)C3)c1 [Example 204, 3-{[5-(2-Adamantan-1-yl-ethyl)-2-(1-hydroxymethyl-cyclohexyl)-1H-imidazole-4-carbonyl]-amino}-benzoic Acid] |
| 69.2 | O=C(O)c1cccc(NC(=O)c2nc(C3C4CC5CC(C4)CC3C5)[nH]c2CCC23CC4CC(CC(C4)C2)C3)c1 (stereo not shown) [Example 207, 3-{[2-Adamantan-2-yl-5-(2-adamantan-1-yl-ethyl)-1H-imidazole-4-carbonyl]-amino}benzoic Acid] |
| 3.47 | O=C(O)c1cccc(NC(=O)c2nc(C3C4CCCC3CCC4)[nH]c2CCC23CC4CC(CC(C4)C2)C3)c1 (stereo not shown) [Example 208, 3-([5-(2-Adamantan-1-yl-ethyl)-2-bicyclo[3.3.1]non-9-yl-1H-imidazole-4-carbonyl]-amino}-benzoic Acid] |
| 2.45 | O=C(O)c1cccc(NC(=O)c2[nH]c(C34CCC(CC3)CC4)nc2CCC23CC4CC(CC(C4)C2)C3)c1 [Example 212, 3-{[5-(2-Adamantan-1-yl-ethyl)-2-bicyclo[2.2.2]oct-1-yl-1H-imidazole-4-carbonyl]-amino}-benzoic Acid] |
| 75.9 | O=C(O)c1cc(NC(=O)c2nc(C34CCC(CC3)CC4)[nH]c2CCC23CC4CC(CC(C4)C2)C3)ccc1F [Example 213, 5-{[5-(2-Adamantan-1-yl-ethyl)-2-bicyclo[2.2.2]oct-1-yl-1H-imidazole-4-carbonyl]-amino}-2-fluoro-benzoic Acid] |
| 10.2 | Cn1c(C2CCCCC2)nc(C(=O)Nc2cccc(C(=O)O)c2)c1CCC12CC3CC(CC(C3)C1)C2 [Example 214, 3-{[5-(2-Adamantan-1-yl-ethyl)-2-cyclohexyl-1-methyl-1H-imidazole-4-carbonyl]-amino}-benzoic Acid] |
| 363 | Cn1c(C2CCCCC2)nc(C(=O)Nc2cccc(CC(=O)O)c2)c1CCC12CC3CC(CC(C3)C1)C2 [Example 215, (3-{[5-(2-Adamantan-1-yl-ethyl)-2-cyclohexyl-1-methyl-1H-imidazole-4-carbonyl]-amino}-phenyl)-acetic Acid] |
